Data published in patent US8420648B2, “Polymorphs of brimonidine pamoate” (Bausch & Lomb Incorporated, priority 2008, dated 2013).
Where two headings read alike, the source gives them in different places.

Columns and labels:
[1] = ambient
Excerpt: Following one week intervals, samples were isolated by centrifugation and dried in vacuo at ambient temperature overnight and analyzed by XRPD to check for polymorphic form conversion.

[2] = ambient conditions
[3] = 88% RH; for Visual inspection (2 week): 2 weeks, inspected for deliquescence
Protocol: This solution results in 88% RH environment. After two weeks of storage the crystalline form was determined by XRPD and solid inspected for deliquescence.

[4] = for XRPD pattern of the solids following moisture sorption analysis: after moisture sorption analysis; for hygroscopicity (in words) / observation upon desorption: moisture sorption analysis; for observation upon desorption: desorption scan; for water adsorbed at 60% RH / water adsorbed at 90% RH: 25° C.
Protocol: Approximately 10 mg of the sample was analyzed in a Pyrex bulb. Each scan utilized a step size of 10% RH and a maximum equilibration time of four hours per point. The sample was dried for one hour at 80° C. following the desorption scan to obtain the dry sample weight and then it was analyzed by XRPD.

[5] = Competitive slurries of brimonidine hemi-pamoate forms; format: physicochemical; conditions: for XRPD (1 week): form: competitive slurry of Forms A, RT; for relative stability (conclusion from competitive slurries): competitive slurries in THF or water, one week
[6] = Protocol: After one week of exposure, the samples were analyzed by XRPD to check for form conversion and HPLC analysis to check for potential degradation. […] Ambient • Detection: 248 nm • Diluent: MeOH • Injection Volume: 5 μl
[7] = cited from earlier work
[8] = stored uncapped at 60° C., 1 week
[9] = 60° C., sample exposed for 6 days (footnote)

Compound	form by XRPD after overnight slurry in water [2]	Visual inspection (2 week) [3]	XRPD pattern of the solids following moisture sorption analysis [4]	hygroscopicity (in words) [4]	observation upon desorption [4]	water adsorbed at 60% RH ([4]; moisture sorption)	water adsorbed at 90% RH ([4]; moisture sorption)	XRPD (1 week): form ([5]; B, C and D in THF (1.0 mL))	XRPD (1 week): form ([5]; C, D and E in water (1.0 mL))	solid state stability after one week of storage at 60° C. (in words, HPLC and XRPD) ([6]; 60° C., one week)	HPLC (% purity) after thermal stress [6, 8]	XRPD (1 week): crystallinity [6, 8]	XRPD (1 week): form [6, 8]	also measured
Brc1c(NC2=NCCN2)ccc2nccnc12.Brc1c(NC2=NCCN2)ccc2nccnc12.O=C(O)c1cc2ccccc2c(Cc2c(O)c(C(=O)O)cc3ccccc23)c1O [Form A, brimonidine hemi-pamoate]	Form B	No deli-	consistent with the Form A starting material	slightly hygroscopic	no hysteresis or indication of hydrate formation	2.2 wt %	2.5 wt %	Form E	Form F	stable by XRPD and HPLC	100.0%	Crystalline	(Form A)	Form by XRPD (1 week) ([1]; slurry in THF 1 mL, 1 week): Form E; Form by XRPD (3 weeks) ([1]; slurry in water (magnetic stirring) 1 mL, 3 weeks): Form B; stability after two weeks of storage at elevated relative humidity (in words) [3]: no sign of deliquescence or change in crystalline form
Brc1c(NC2=NCCN2)ccc2nccnc12.Brc1c(NC2=NCCN2)ccc2nccnc12.O=C(O)c1cc2ccccc2c(Cc2c(O)c(C(=O)O)cc3ccccc23)c1O [Form B, brimonidine hemi-pamoate]			consistent with Form B			5.4 wt %	5.8 wt %	Form E			100.0%	Crystalline	(Form B)	water content stabilized between 20-90% RH [4]: 5-6 wt %; solid state stability after one week of storage at 60° C. (in words, HPLC and XRPD) [6]: no degradation or signs of form conversion
Brc1c(NC2=NCCN2)ccc2nccnc12.Brc1c(NC2=NCCN2)ccc2nccnc12.O=C(O)c1cc2ccccc2c(Cc2c(O)c(C(=O)O)cc3ccccc23)c1O [Form C, brimonidine hemi-pamoate]	mixture of Forms B and F	No deli-	consistent with Form C	moderately hygroscopic	no hysteresis or indication of hydrate formation	4.6 wt %	13.0 wt %	Form E	Form F	no significant degradation or signs of form conversion	97.9%	Semi-cryst.	(Form C)	
Brc1c(NC2=NCCN2)ccc2nccnc12.Brc1c(NC2=NCCN2)ccc2nccnc12.O=C(O)c1cc2ccccc2c(Cc2c(O)c(C(=O)O)cc3ccccc23)c1O [Form D, brimonidine hemi-pamoate]	mixture of Forms B and F		consistent with Form D	slightly hygroscopic	no hysteresis or indication of hydrate formation	1.8 wt %	2.6 wt %	Form E	Form F	no significant degradation or signs of form conversion	96.7%	Crystalline	(Form D)	
Brc1c(NC2=NCCN2)ccc2nccnc12.Brc1c(NC2=NCCN2)ccc2nccnc12.O=C(O)c1cc2ccccc2c(Cc2c(O)c(C(=O)O)cc3ccccc23)c1O [Form E, brimonidine hemi-pamoate]	mixture of Forms B and F		consistent with Form E	slightly hygroscopic	no hysteresis or indication of hydrate formation	3.1 wt %	4.2 wt %		Form F	no significant degradation or signs of form conversion				relative stability (conclusion from competitive slurries) [5]: most stable anhydrate form; HPLC (% purity) after thermal stress [6, 9]: 100.0%; XRPD (1 week): crystallinity [6, 9]: Semi-cryst.; XRPD (1 week): form [6, 9]: (Form E)
Brc1c(NC2=NCCN2)ccc2nccnc12.Brc1c(NC2=NCCN2)ccc2nccnc12.O=C(O)c1cc2ccccc2c(Cc2c(O)c(C(=O)O)cc3ccccc23)c1O [Form F, brimonidine hemi-pamoate]	mixture of Forms B and F	No deli-	consistent with Form F											stability after two weeks of storage at elevated relative humidity (in words) [3]: no sign of deliquescence or change in crystalline form; water adsorbed at 40% RH ([4]; moisture sorption, 40% RH): approximately 1.8 molar equivalent; relative stability (conclusion from competitive slurries) [5]: more stable in water than Forms A, C, D and E
Brc1c(NC2=NCCN2)ccc2nccnc12 [brimonidine freebase, 5-bromo-6-(2-imidazolidinylideneamino)quinoxaline]														solubility in water (in words) ([7]; water): negligible
brimonidine tartrate														solubility in a pH 7.0 phosphate buffer ([7]; pH 7.0 phosphate buffer): 2.4 mg/mL; solubility in water ([7]; water): 34 mg/mL
